A value given as a limit tells only on which side of the number the result lay.

The values below come from patent US9309224B2 (Deciphera Pharmaceuticals, LLC, priority 2013, dated 2016).

The target in assay [1] is T1, phospho-FMS in THP-1 cells (Homo sapiens, UniProt P07333).
T1 construct: endogenous in cells; host or cells: THP-1 (ATCC TIB-202)
Description: Phospho-FMS ELISA assay in THP-1 cells. The conditions noted are these: 4 hours compound, M-CSF stimulated; read-out: pFMS inhibition in THP-1 cells. The assay is classed as cell-based. Background: In an ELISA, binding on a coated surface is turned into a signal by an enzyme label.

The target in assay [2] is T2, unphosphorylated c-FMS kinase (uFMS, Seq. ID no. 1) (Homo sapiens, UniProt P07333).
T2 construct: purchased Millipore
T2 sequence (P07333 538-972): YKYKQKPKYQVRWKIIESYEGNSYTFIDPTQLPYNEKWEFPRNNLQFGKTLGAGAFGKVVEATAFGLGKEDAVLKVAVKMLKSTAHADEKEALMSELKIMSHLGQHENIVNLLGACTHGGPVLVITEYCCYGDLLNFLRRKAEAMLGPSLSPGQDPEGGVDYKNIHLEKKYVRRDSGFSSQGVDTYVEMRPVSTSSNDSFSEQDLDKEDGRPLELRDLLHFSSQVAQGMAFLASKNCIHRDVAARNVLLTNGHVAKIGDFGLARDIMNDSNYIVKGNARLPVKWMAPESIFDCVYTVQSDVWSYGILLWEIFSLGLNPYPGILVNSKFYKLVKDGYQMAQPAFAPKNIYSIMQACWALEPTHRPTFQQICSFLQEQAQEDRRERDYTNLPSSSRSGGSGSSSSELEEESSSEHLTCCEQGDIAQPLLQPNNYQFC
Description: uFMS kinase assay (pyruvate kinase/lactate dehydrogenase coupled). The conditions noted are these: ATP 500 μM. It is filed as biochemical.
Description: In this assay, the oxidation of NADH (thus the decrease at A340 nm) was continuously monitored spectrophometrically. The reaction mixture (100 μL) contained FMS (purchased from Millipore) (10 nM), polyE4Y (1 mg/mL), MgCl2 (10 mM), pyruvate kinase (4 units), lactate dehydrogenase (0.7 units), phosphoenol pyruvate (1 mM), NADH (0.28 mM) and ATP (500 μM) in 90 mM Tris buffer containing 0.2% octyl-glucoside and 1% DMSO, pH 7.5. The inhibition reaction was started by mixing serial diluted test compound with the above reaction mixture. The absorption at 340 nm was monitored continuously for 4 hours at 30° C. on Synergy 2 plate reader. The reaction rate was calculated using the 3 to 4 h time frame. Percent inhibition was obtained by comparison of reaction rate with that of a control (i.e. in the absence of test compound). IC50 values were calculated from a series of percent inhibition values determined at a range of inhibitor concentrations using software routines as implemented in the GraphPad Prism software package.

Assay [3] deals with T3, unphosphorylated c-KIT kinase (uKIT, Seq. ID no. 2) (Homo sapiens, UniProt P10721).
T3 construct: uKit with N-terminal GST fusion used for
Description: uKit kinase assay (pyruvate kinase/lactate dehydrogenase coupled). It is filed as biochemical. To be noted: ATP 2000 μM.
Description: In this assay, the oxidation of NADH (thus the decrease at A340 nm) was continuously monitored spectrophometrically. […] The inhibition reaction was started by mixing serial diluted test compound with the above reaction mixture. The absorption at 340 nm was monitored continuously for 4 hours at 30° C. on Synergy 2 plate reader (BioTech).

The next assay has as its system c-FMS. Description: cFOS mRNA production in a c-FMS mouse spleen pharmacodynamic model. The assay is classed as in vivo. To be noted: out to 8 h post 30 mg/kg single oral dose, read-out: inhibition of cFOS mRNA levels. How it is done:
Analysis of cFOS mRNA Production in a c-FMS Mouse Spleen Pharmacodynamic Model To examine the in vivo modulation of FMS activity by compounds of formula I, spleen samples from female DBA/1 mice were collected and analyzed for M-CSF stimulated production of cFOS mRNA. Briefly, six to seven week old female Taconic DBA/1BO J Bom Tac mice were treated with a single oral dose (by gavage) of either vehicle or compound. Plasma and spleen samples are collected from four mice at each timepoint 2, 4, 6, 8, 12, 18, and 24 hours after dosing. Fifteen minutes prior to euthanasia, all mice were injected IV with 1 μg (100 μL fixed volume) of M-CSF. M-CSF, Recombinant Mouse Macrophage Colony Stimulating Factor (36.4 kDa homodimer, ≧98% purity) was obtained from Gibco. All procedures carried out in this experiment were conducted in compliance with all the laws, regulations and guidelines of the National Institutes of Health (NIH). cFOS mRNA levels in spleen extracts were determined using a quantitative reverse transcriptase PCR kit from Life Technologies. Plasma levels of FMS inhibitors were determined by mass spectrometer analysis. The degree of FMS inhibition was correlative to the amount of decrease observed in cFOS mRNA levels in the spleen samples of treated animals compared to vehicle.

For the next assay, the system named is M-NFS-60 cells. Description: M-NFS-60 cell proliferation assay. The conditions noted are these: 67 h incubation, resazurin. The assay is classed as cell-based.
Assay [4] concerns the target T4, unphosphorylated PDGFRβ kinase (uPDGFRβ, Seq. ID No. 3) (Homo sapiens, UniProt P09619).
T4 construct: purchased DeCode
Description: Unphosphorylated PDGFRβ kinase assay (pyruvate kinase/lactate dehydrogenase coupled). The assay is classed as biochemical. The conditions noted are these: ATP 500 μM. The text has this: Unphosyhorylated PDGFRβ (uPDGFRβkinase (Seq. ID No. 3) assay

A further assay concerns osteoclast precursors. Description: Osteoclast tartrate-resistant acid phosphatase assay. The conditions noted are these: Osteoclast; 7-14 days, RANKL and M-CSF. It is filed as cell-based.

T4 sequence (P09619 557-1105): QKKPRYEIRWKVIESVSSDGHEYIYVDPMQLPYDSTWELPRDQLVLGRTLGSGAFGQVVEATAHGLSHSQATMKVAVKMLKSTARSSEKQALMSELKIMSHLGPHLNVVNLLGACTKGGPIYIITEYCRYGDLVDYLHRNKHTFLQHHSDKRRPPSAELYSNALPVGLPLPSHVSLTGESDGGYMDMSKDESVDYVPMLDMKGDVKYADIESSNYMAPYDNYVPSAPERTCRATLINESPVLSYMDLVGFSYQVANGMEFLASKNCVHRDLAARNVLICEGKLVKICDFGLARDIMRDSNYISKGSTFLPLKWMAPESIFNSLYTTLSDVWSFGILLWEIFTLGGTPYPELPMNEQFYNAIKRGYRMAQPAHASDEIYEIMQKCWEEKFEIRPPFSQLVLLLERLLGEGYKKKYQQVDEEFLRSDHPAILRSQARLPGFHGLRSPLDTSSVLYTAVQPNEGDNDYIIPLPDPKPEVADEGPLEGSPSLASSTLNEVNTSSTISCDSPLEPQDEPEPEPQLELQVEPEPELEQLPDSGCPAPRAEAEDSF
T1 sequence (P07333 20-972): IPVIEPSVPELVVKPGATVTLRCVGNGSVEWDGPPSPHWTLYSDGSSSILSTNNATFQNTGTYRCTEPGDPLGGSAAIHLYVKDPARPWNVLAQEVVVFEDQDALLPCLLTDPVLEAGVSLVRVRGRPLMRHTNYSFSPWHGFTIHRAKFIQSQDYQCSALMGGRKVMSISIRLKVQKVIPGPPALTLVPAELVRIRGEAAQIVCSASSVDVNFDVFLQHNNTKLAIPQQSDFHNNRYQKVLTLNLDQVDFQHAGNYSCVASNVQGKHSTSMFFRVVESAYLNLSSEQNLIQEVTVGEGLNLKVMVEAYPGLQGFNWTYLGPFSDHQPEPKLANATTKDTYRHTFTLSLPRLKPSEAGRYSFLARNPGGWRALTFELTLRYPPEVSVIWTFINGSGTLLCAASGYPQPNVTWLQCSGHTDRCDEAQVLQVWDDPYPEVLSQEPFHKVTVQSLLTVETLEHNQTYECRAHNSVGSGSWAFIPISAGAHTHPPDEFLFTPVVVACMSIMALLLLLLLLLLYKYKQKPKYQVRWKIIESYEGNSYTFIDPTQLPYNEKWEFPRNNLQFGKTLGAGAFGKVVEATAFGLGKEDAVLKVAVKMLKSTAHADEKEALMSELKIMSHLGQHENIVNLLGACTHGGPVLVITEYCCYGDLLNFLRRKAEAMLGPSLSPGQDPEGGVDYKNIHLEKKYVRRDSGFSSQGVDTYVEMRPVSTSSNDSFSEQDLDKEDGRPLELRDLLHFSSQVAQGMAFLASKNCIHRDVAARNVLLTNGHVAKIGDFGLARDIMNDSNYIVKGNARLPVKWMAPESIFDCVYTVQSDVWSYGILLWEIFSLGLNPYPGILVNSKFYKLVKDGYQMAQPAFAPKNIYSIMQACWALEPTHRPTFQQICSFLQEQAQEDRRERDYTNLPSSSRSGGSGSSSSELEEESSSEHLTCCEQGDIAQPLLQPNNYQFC
T3 sequence (P10721 with tags, fused parts or gaps): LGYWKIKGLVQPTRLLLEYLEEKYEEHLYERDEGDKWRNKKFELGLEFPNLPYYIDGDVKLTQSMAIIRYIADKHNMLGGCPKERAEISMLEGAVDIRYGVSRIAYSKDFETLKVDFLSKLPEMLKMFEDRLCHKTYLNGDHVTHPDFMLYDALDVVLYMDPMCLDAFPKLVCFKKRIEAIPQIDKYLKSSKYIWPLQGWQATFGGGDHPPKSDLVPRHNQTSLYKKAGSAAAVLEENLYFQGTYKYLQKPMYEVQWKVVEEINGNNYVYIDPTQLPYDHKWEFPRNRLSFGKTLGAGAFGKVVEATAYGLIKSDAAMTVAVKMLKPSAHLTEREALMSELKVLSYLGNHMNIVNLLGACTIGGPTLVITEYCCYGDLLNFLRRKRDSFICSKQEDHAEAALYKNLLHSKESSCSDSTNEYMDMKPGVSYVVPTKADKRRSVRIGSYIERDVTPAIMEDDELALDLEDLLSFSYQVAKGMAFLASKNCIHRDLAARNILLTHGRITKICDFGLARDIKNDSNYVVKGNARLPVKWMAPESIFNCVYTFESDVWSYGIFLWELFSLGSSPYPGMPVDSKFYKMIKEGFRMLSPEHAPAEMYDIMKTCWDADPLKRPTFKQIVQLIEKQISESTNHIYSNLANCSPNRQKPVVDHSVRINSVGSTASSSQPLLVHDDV
Description for M-NFS-60 cells: M-NFS-60 Cell Proliferation Assay A serial dilution of test compound was dispensed into a 384-well black clear bottom plate (Corning, Corning, N.Y.). Two thousand five hundred cells were added per well in 50 μL complete growth medium. […] IC50 values were calculated from a series of percent inhibition values determined at a range of inhibitor concentrations using software routines as implemented in the GraphPad Prism software package.

For `CC(=O)Nc1cc(Oc2ccc(NC(=O)NC(=O)C(C)(C)C)nc2)ccn1` [Example 3, N-((5-((2-acetamidopyridin-4-yl)oxy)pyridin-2-yl)carbamoyl)pivalamide], the IC50 in assay [1] was below 10 nM; in assay [2] it was below 10 nM; in assay [3], above 1000 nM; in the assay with M-NFS-60 cells, 10 to 100 nM; in assay [4], above 1000 nM; in the assay on osteoclast precursors, below 10 nM. Besides, in the assay with c-FMS, the inhibition in vivo at 30 mg/kg is at least 50%.

Turning to `CC(=O)Nc1cc(Oc2ccc(NC(=O)NC(=O)C3CCCC3)nc2C)ccn1` [Example 8, N-((5-((2-acetamidopyridin-4-yl)oxy)-6-methylpyridin-2-yl)carbamoyl)cyclopentanecarboxamide], the IC50 in assay [1] was below 10 nM; in assay [2], below 10 nM; in assay [3], 100 to 1000 nM; in the assay with M-NFS-60 cells it was below 10 nM; in assay [4] it was 10 to 100 nM; in the assay with osteoclast precursors, below 10 nM. Further, in the assay with c-FMS, the inhibition in vivo at 30 mg/kg is at least 50%.

Take `Cc1nc(NC(=O)NC(=O)C(C)(C)C)ccc1Oc1ccnc(NC(=O)C2CC2)c1` [Example 11, N-(4-((2-methyl-6-(3-pivaloylureido)pyridin-3-yl)oxy)pyridin-2-yl)cyclopropanecarboxamide]: the IC50 in assay [1] is below 10 nM; in assay [2], below 10 nM; in assay [3], above 1000 nM; in the assay with M-NFS-60 cells, below 10 nM; in assay [4], 10 to 100 nM; in the assay on osteoclast precursors, below 10 nM. Besides, in the assay on c-FMS, the inhibition in vivo at 30 mg/kg is at least 50%.

Regarding `CN1CCC(C(=O)Nc2cc(Oc3ccc(NC(=O)NC(=O)C(C)(C)C)nc3)ccn2)CC1` [Example 21, 1-methyl-N-(4-((6-(3-pivaloylureido)pyridin-3-yl)oxy)pyridin-2-yl)piperidine-4-carboxamide], the IC50 in assay [1] is 10 to 100 nM; in assay [2], below 10 nM; in assay [3] it was above 1000 nM; with M-NFS-60 cells, 10 to 100 nM; in assay [4], above 1000 nM; in the assay with osteoclast precursors, below 10 nM. Also, the inhibition in vivo at 30 mg/kg with c-FMS was at least 50%.

In the case of `CN(C)C(=O)Nc1cc(Oc2ccc(NC(=O)NC(=O)C(C)(C)C)nc2)ccn1` [Example 23, N-((5-((2-(3,3-dimethylureido)pyridin-4-yl)oxy)pyridin-2-yl)carbamoyl)pivalamide], the IC50 is below 10 nM in assay [1]; below 10 nM in assay [2]; above 1000 nM in assay [3]; below 10 nM in the assay on M-NFS-60 cells; 100 to 1000 nM in assay [4]; below 10 nM in the assay on osteoclast precursors. The inhibition in vivo at 30 mg/kg in the assay on c-FMS was at least 50%.

For `COC(C)(C)C(=O)NC(=O)Nc1ccc(Oc2ccnc(NC(C)=O)c2)cn1` [Example 26, N-((5-((2-acetamidopyridin-4-yl)oxy)pyridin-2-yl)carbamoyl)-2-methoxy-2-methylpropanamide], the IC50 is below 10 nM in assay [1]; below 10 nM in assay [2]; above 1000 nM in assay [3]; 10 to 100 nM in the assay with M-NFS-60 cells; 100 to 1000 nM in assay [4]; below 10 nM in the assay on osteoclast precursors. In addition, the inhibition in vivo at 30 mg/kg in the assay with c-FMS was at least 50%.

On to `CNC(=O)c1cc(Oc2ccc(NC(=O)NC(=O)C(C)(C)C)nc2)ccn1` [Example 34, N-methyl-4-((6-(3-pivaloylureido)pyridin-3-yl)oxy)picolinamide], for which the IC50 in assay [1] is 10 to 100 nM; in assay [2], below 10 nM; in assay [3] it was above 1000 nM; with M-NFS-60 cells it was 10 to 100 nM; in assay [4], above 1000 nM; in the assay with osteoclast precursors it was 10 to 100 nM. Also, the inhibition in vivo at 30 mg/kg with c-FMS is at least 50%.

`Cc1nc(NC(=O)NC(=O)C(C)(C)C)ccc1Oc1ccnc(NC(=O)N(C)C)c1` [Example 62, N-((5-((2-(3,3-dimethylureido)pyridin-4-yl)oxy)-6-methylpyridin-2-yl)carbamoyl)pivalamide]: the IC50 was below 10 nM in assay [1]; below 10 nM in assay [2]; above 1000 nM in assay [3]; below 10 nM in the assay on M-NFS-60 cells; above 1000 nM in assay [4]; 10 to 100 nM in the assay on osteoclast precursors. In the assay on c-FMS, the inhibition in vivo at 30 mg/kg is at least 50%.

`CC(C)(C)C(=O)NC(=O)Nc1ccc(Oc2ccnc(NC(=O)N3CCNCC3)c2)cn1` [Example 83, N-(4-((6-(3-pivaloylureido)pyridin-3-yl)oxy)pyridin-2-yl)piperazine-1-carboxamide]: the IC50 in assay [1] was below 10 nM; in assay [2], below 10 nM; in assay [3] it was above 1000 nM; in the assay with M-NFS-60 cells, 10 to 100 nM; in assay [4], 100 to 1000 nM; in the assay on osteoclast precursors, below 10 nM. Further, the inhibition in vivo at 30 mg/kg with c-FMS is at least 50%.
